Results published in patent US11382328B2, “Rapid drug discovery methods for pathogen inactivation” (priority 2019, dated 2022).

Test system: E. coli strain W3110
Test: Synergy assays: Biolog chemical sensitivity panels with Group IB metal, coefficient of drug interaction (CDI) from relative growth
Type: cell-based
Settings: for CDI (coefficient of drug interaction), gold + biocide: Gold (μM); for CDI (coefficient of drug interaction), copper mixed with biocide: Copper (mM) section
[1] = Copper (mM), 1st of 3 copper concentrations (head line not shown), biocide concentration 1 of 4, E. coli
[2] = Copper (mM), 1st of 3 copper concentrations (head line not shown), biocide concentration 2 of 4, E. coli
[3] = Copper (mM), 1st of 3 copper concentrations (head line not shown), biocide concentration 3 of 4, E. coli
[4] = Copper (mM), 1st of 3 copper concentrations (head line not shown), biocide concentration 4 of 4, E. coli
[5] = Copper (mM), 2nd of 3 copper concentrations (head line not shown), biocide concentration 1 of 4, E. coli
[6] = Copper (mM), 2nd of 3 copper concentrations (head line not shown), biocide concentration 2 of 4, E. coli
[7] = Copper (mM), 2nd of 3 copper concentrations (head line not shown), biocide concentration 3 of 4, E. coli
[8] = Copper (mM), 2nd of 3 copper concentrations (head line not shown), biocide concentration 4 of 4, E. coli
[9] = Copper (mM), 3rd of 3 copper concentrations (head line not shown), biocide concentration 1 of 4, E. coli
[10] = Copper (mM), 3rd of 3 copper concentrations (head line not shown), biocide concentration 2 of 4, E. coli
[11] = Copper (mM), 3rd of 3 copper concentrations (head line not shown), biocide concentration 3 of 4, E. coli
[12] = Copper (mM), 3rd of 3 copper concentrations (head line not shown), biocide concentration 4 of 4, E. coli
[13] = Gold section of Table 5, first of three gold concentrations (μM, value not given), biocide concentration 1 of 4
[14] = Gold section of Table 5, first of three gold concentrations (μM, value not given), biocide concentration 2 of 4
[15] = Gold section of Table 5, first of three gold concentrations (μM, value not given), biocide concentration 3 of 4
[16] = Gold section of Table 5, first of three gold concentrations (μM, value not given), biocide concentration 4 of 4
[17] = Gold section of Table 5, second of three gold concentrations (μM, value not given), biocide concentration 1 of 4
[18] = Gold section of Table 5, second of three gold concentrations (μM, value not given), biocide concentration 2 of 4
[19] = Gold section of Table 5, second of three gold concentrations (μM, value not given), biocide concentration 3 of 4
[20] = Gold section of Table 5, second of three gold concentrations (μM, value not given), biocide concentration 4 of 4
[21] = Gold section of Table 5, third of three gold concentrations (μM, value not given), biocide concentration 1 of 4
[22] = Gold section of Table 5, third of three gold concentrations (μM, value not given), biocide concentration 2 of 4
[23] = Gold section of Table 5, third of three gold concentrations (μM, value not given), biocide concentration 3 of 4
[24] = Gold section of Table 5, third of three gold concentrations (μM, value not given), biocide concentration 4 of 4
[25] = Silver 0.5 μM, biocide concentration 1 of 4
[26] = Silver 0.5 μM, biocide concentration 2 of 4
[27] = Silver 0.5 μM, biocide concentration 3 of 4
[28] = Silver 0.5 μM, biocide concentration 4 of 4
[29] = Silver 1.0 μM, biocide concentration 1 of 4
[30] = Silver 1.0 μM, biocide concentration 2 of 4
[31] = Silver 1.0 μM, biocide concentration 3 of 4
[32] = Silver 1.0 μM, biocide concentration 4 of 4
[33] = Silver 5.0 μM, biocide concentration 3 of 4
[34] = Silver 5.0 μM, biocide concentration 4 of 4
[35] = first of 3 gold concentrations, biocide concentration 3 of 4
[36] = first of 3 gold concentrations, biocide concentration 4 of 4
[37] = second of 3 gold concentrations, biocide concentration 3 of 4
[38] = second of 3 gold concentrations, biocide concentration 4 of 4
[39] = third of 3 gold concentrations, biocide concentration 3 of 4
[40] = third of 3 gold concentrations, biocide concentration 4 of 4
[41] = Silver 0.5 μM, 4th of four biocide concentrations, E. coli
[42] = Silver 1.0 μM, 4th of four biocide concentrations, E. coli
[43] = Silver 5.0 μM, 4th of four biocide concentrations, E. coli
[44] = Silver 5.0 μM, biocide concentration 1 of 4
[45] = Silver 5.0 μM, biocide concentration 2 of 4

SMILES: O=S(=O)(F)Cc1ccccc1 [PMSF]
- CDI (coefficient of drug interaction) [1]: 0.76
- CDI (coefficient of drug interaction) [2]: 0.71
- CDI (coefficient of drug interaction) [3]: 0.62
- CDI (coefficient of drug interaction) [4]: 0.71
- CDI (coefficient of drug interaction) [5]: 0.59
- CDI (coefficient of drug interaction) [6]: 0.58
- CDI (coefficient of drug interaction) [7]: 0.37
- CDI (coefficient of drug interaction) [8]: 0.46
- CDI (coefficient of drug interaction) [9]: 0.41
- CDI (coefficient of drug interaction) [10]: 0.42
- CDI (coefficient of drug interaction) [11]: 0.34
- CDI (coefficient of drug interaction) [12]: 0.38
- CDI (coefficient of drug interaction) [13]: 1.07
- CDI (coefficient of drug interaction) [14]: 0.96
- CDI (coefficient of drug interaction) [15]: 0.93
- CDI (coefficient of drug interaction) [16]: 0.74
- CDI (coefficient of drug interaction) [17]: 1.03
- CDI (coefficient of drug interaction) [18]: 1.05
- CDI (coefficient of drug interaction) [19]: 1.11
- CDI (coefficient of drug interaction) [20]: 0.85
- CDI (coefficient of drug interaction) [21]: 1.07
- CDI (coefficient of drug interaction) [22]: 1.16
- CDI (coefficient of drug interaction) [23]: 1.21
- CDI (coefficient of drug interaction) [24]: 2.21
- CDI [25]: 0.91
- CDI [26]: 0.92
- CDI [27]: 1.10
- CDI [28]: 0.35
- CDI [29]: 1.03
- CDI [30]: 1.10
- CDI [31]: 1.06
- CDI [32]: 0.55
- CDI [33]: 1.25
- CDI [34]: 0.60

SMILES: c1ccc(-c2nn(-c3ccccc3)[n+](-c3cccc4ccccc34)n2)cc1 [Tetrazolium violet]
- CDI (coefficient of drug interaction) [3]: Tox
- CDI (coefficient of drug interaction) [4]: Tox
- CDI (coefficient of drug interaction) [7]: Tox
- CDI (coefficient of drug interaction) [8]: Tox
- CDI (coefficient of drug interaction) [11]: Tox
- CDI (coefficient of drug interaction) [12]: Tox
- CDI (coefficient of drug interaction), gold + biocide [35]: Tox
- CDI (coefficient of drug interaction), gold + biocide [36]: Tox
- CDI (coefficient of drug interaction), gold + biocide [37]: Tox
- CDI (coefficient of drug interaction), gold + biocide [38]: Tox
- CDI (coefficient of drug interaction), gold + biocide [39]: Tox
- CDI (coefficient of drug interaction), gold + biocide [40]: Tox
- CDI [27]: Tox
- CDI [28]: Tox
- CDI [31]: Tox
- CDI [32]: Tox
- CDI [33]: Tox
- CDI [34]: Tox

SMILES: CCCCC(CC)CNC(=N)NC(=N)NCCCCCCNC(=N)NC(=N)NCC(CC)CCCC (stereo not shown) [alexidine]
- CDI (coefficient of drug interaction), copper mixed with biocide (1st of 3 copper concentrations (value not shown), 3rd of four biocide concentrations): Tox
- CDI (coefficient of drug interaction), copper mixed with biocide (1st of 3 copper concentrations (value not shown), 4th of four biocide concentrations): Tox
- CDI (coefficient of drug interaction), copper mixed with biocide (2nd of 3 copper concentrations (value not shown), 3rd of four biocide concentrations): Tox
- CDI (coefficient of drug interaction), copper mixed with biocide (2nd of 3 copper concentrations (value not shown), 4th of four biocide concentrations): Tox
- CDI (coefficient of drug interaction), copper mixed with biocide (3rd of 3 copper concentrations (value not shown), 3rd of four biocide concentrations): Tox
- CDI (coefficient of drug interaction), copper mixed with biocide (3rd of 3 copper concentrations (value not shown), 4th of four biocide concentrations): Tox
- CDI (coefficient of drug interaction) [15]: Tox
- CDI (coefficient of drug interaction) [16]: Tox
- CDI (coefficient of drug interaction) [19]: Tox
- CDI (coefficient of drug interaction) [20]: Tox
- CDI (coefficient of drug interaction) [23]: Tox
- CDI (coefficient of drug interaction) [24]: Tox
- CDI (coefficient of drug interaction), silver + biocide (Silver 0.5 μM, 3rd of four biocide concentrations, E. coli): Tox
- CDI (coefficient of drug interaction), silver + biocide [41]: Tox
- CDI (coefficient of drug interaction), silver + biocide (Silver 1.0 μM, 3rd of four biocide concentrations, E. coli): Tox
- CDI (coefficient of drug interaction), silver + biocide [42]: Tox
- CDI (coefficient of drug interaction), silver + biocide (Silver 5.0 μM, 3rd of four biocide concentrations, E. coli): Tox
- CDI (coefficient of drug interaction), silver + biocide [43]: Tox

SMILES: NCC[C@H](O)C(=O)N[C@@H]1C[C@H](N)[C@@H](O[C@H]2O[C@H](CN)[C@@H](O)[C@H](O)[C@H]2O)[C@H](O)[C@H]1O[C@H]1O[C@H](CO)[C@@H](O)[C@H](N)[C@H]1O [amikacin]
- cell toxicity / growth curves with and without silver: enhanced cell toxicity

SMILES: CC1(C)S[C@@H]2[C@H](NC(=O)[C@H](NC(=O)N3CCNC3=O)c3ccccc3)C(=O)N2[C@H]1C(=O)O [aziocillin]
- CDI (coefficient of drug interaction) [1]: 0.97
- CDI (coefficient of drug interaction) [2]: 1.05
- CDI (coefficient of drug interaction) [3]: 1.08
- CDI (coefficient of drug interaction) [4]: Tox
- CDI (coefficient of drug interaction) [5]: 0.94
- CDI (coefficient of drug interaction) [6]: 0.90
- CDI (coefficient of drug interaction) [7]: 0.97
- CDI (coefficient of drug interaction) [8]: Tox
- CDI (coefficient of drug interaction) [9]: 0.78
- CDI (coefficient of drug interaction) [10]: 0.70
- CDI (coefficient of drug interaction) [11]: 0.61
- CDI (coefficient of drug interaction) [12]: Tox
- CDI (coefficient of drug interaction), gold + biocide (first of 3 gold concentrations, biocide concentration 1 of 4): 0.92
- CDI (coefficient of drug interaction), gold + biocide (first of 3 gold concentrations, biocide concentration 2 of 4): 1.01
- CDI (coefficient of drug interaction), gold + biocide [35]: 0.94
- CDI (coefficient of drug interaction), gold + biocide [36]: 0.64
- CDI (coefficient of drug interaction), gold + biocide (second of 3 gold concentrations, biocide concentration 1 of 4): 1.05
- CDI (coefficient of drug interaction), gold + biocide (second of 3 gold concentrations, biocide concentration 2 of 4): 1.09
- CDI (coefficient of drug interaction), gold + biocide [37]: 0.89
- CDI (coefficient of drug interaction), gold + biocide [38]: 0.64
- CDI (coefficient of drug interaction), gold + biocide (third of 3 gold concentrations, biocide concentration 1 of 4): 0.94
- CDI (coefficient of drug interaction), gold + biocide (third of 3 gold concentrations, biocide concentration 2 of 4): 0.93
- CDI (coefficient of drug interaction), gold + biocide [39]: 0.93
- CDI (coefficient of drug interaction), gold + biocide [40]: 0.47
- CDI [25]: 0.90
- CDI [26]: 1.07
- CDI [28]: Tox
- CDI [29]: 0.97
- CDI [30]: 0.90
- CDI [31]: 1.14
- CDI [32]: Tox
- CDI [44]: 1.03
- CDI [45]: 1.08
- CDI [33]: 0.70
- CDI [34]: Tox

SMILES: CN(CC[C@H](N)CC(=O)N[C@H]1C=C[C@H](n2ccc(N)nc2=O)O[C@@H]1C(=O)O)C(=N)N [blasticidin S]
- CDI (coefficient of drug interaction) [1]: 1.05
- CDI (coefficient of drug interaction) [2]: 1.14
- CDI (coefficient of drug interaction) [3]: 0.95
- CDI (coefficient of drug interaction) [4]: Tox
- CDI (coefficient of drug interaction) [5]: 0.90
- CDI (coefficient of drug interaction) [6]: 0.96
- CDI (coefficient of drug interaction) [7]: Tox
- CDI (coefficient of drug interaction) [8]: Tox
- CDI (coefficient of drug interaction) [9]: 0.71
- CDI (coefficient of drug interaction) [10]: 0.65
- CDI (coefficient of drug interaction) [11]: 0.49
- CDI (coefficient of drug interaction) [12]: Tox
- CDI (coefficient of drug interaction) [13]: 1.05
- CDI (coefficient of drug interaction) [14]: 0.95
- CDI (coefficient of drug interaction) [15]: 0.97
- CDI (coefficient of drug interaction) [16]: Tox
- CDI (coefficient of drug interaction) [17]: 1.06
- CDI (coefficient of drug interaction) [18]: 1.08
- CDI (coefficient of drug interaction) [19]: 1.11
- CDI (coefficient of drug interaction) [20]: Tox
- CDI (coefficient of drug interaction) [21]: 1.09
- CDI (coefficient of drug interaction) [22]: 1.06
- CDI (coefficient of drug interaction) [23]: 1.11
- CDI (coefficient of drug interaction) [24]: Tox
- CDI [25]: 1.04
- CDI [26]: 0.90
- CDI [27]: 0.92
- CDI [28]: Tox
- CDI [29]: 1.01
- CDI [30]: 1.02
- CDI [31]: Tox
- CDI [32]: Tox
- CDI [44]: 1.52
- CDI [45]: 1.40
- CDI [33]: Tox
- CDI [34]: Tox

SMILES: O=C1C2CC=CCC2C(=O)N1SC(Cl)(Cl)Cl (stereo not shown) [captan]
- CDI (coefficient of drug interaction), silver + biocide [41]: Tox
- CDI (coefficient of drug interaction), silver + biocide [42]: Tox
- CDI (coefficient of drug interaction), silver + biocide [43]: Tox
